From article PMC11874007, “Switching Roles—Exploring Concentration-Dependent Agonistic versus Antagonistic Behavior of Integrin Ligands” (Journal of Medicinal Chemistry, 2025)
Non-standard residues stand in square brackets, D forms with d. NMeV = CN[C@H](C(=O)O)C(C)C

Columns and labels:
αvβ3+ M21 cells = test: Wound scratch cell migration assay, M21 cells; format: cell-based
Procedure: (§1) As a biological readout for integrin signaling, we analyzed ligand effects on cell adhesion and migration by wound scratch assays (Figure 10A,B). […] Microscopical images were taken directly after wounding the cell monolayers and then after 9, 24, 48, and 72 h, respectively.
(§2) Figure 10 (A) Effect of integrin ligands on cancer cell migration. […] Microscopical measurements of wound gaps were taken directly after setting the wound scratch and then after 9, 24, 48, and 72 h, respectively. Wound scratch assays were repeated at least three times. The extent of wound gap closure [%]/cell coverage was calculated by a python script utilizing Canny’s Edge Detection algorithm as described under Materials and summarized in the corresponding histograms (see also Scheme S5 in the Supporting Information). (B) Adhesion of M21, OV-MZ-6, and HN cells in the presence of the respective integrin targeting ligand at low (1 nM) and high (1 μM) concentrations. […] Depicted are typical microscopical images of the respective cell monolayers.
(§3) The assays were performed according to a modified protocol as previously published.[94] Cells were cultivated on fibronectin-coated 12-well cell culture plates until cell monolayers reached an approximately 80% confluency. Then, the wound scratch was set utilizing a 200 μL pipet tip. Subsequently, fresh culture medium was added in the absence or presence of L1–L5 (concentration: 1 μM or 1 nM), and microscopical images (Zeiss, Oberkochen, Germany) were taken at two identical positions of the wound gap directly after wounding and then at 9, 24, 48, or 72 h of further cell cultivation. Each wound scratch assay was repeated three times. A custom python script was implemented to analyze wound gap closure over time: after cropping the images, we used the OpenCV[95] implementation of Canny’s Edge Detection Algorithm[96] to ensure reliable measurements even with variable lighting conditions.[97] As a first step, a 5 × 5 Gaussian filter was applied to remove background noise. The smoothened images were then filtered by a Sobel kernel[98] and the magnitude and direction of the intensity gradient of the images calculated. Then, a non-maximum suppression algorithm was applied to identify relevant pixels that presumably contribute to edges. In a final step, threshold hysteresis was utilized to distinguish true edges from variations in intensity or the remaining background noise. The resulting images were then segmented and binarized by use of a grid filter and analyzed with respect to cell-covered area relative to the start image of each series.

[1] = tested on: FAK, p-FAK, p44/42erk-1/2, p-p44/42erk-1/2 in α5β1+ OV-MZ-6 cells; test: Western blot of FAK and p44/42erk-1/2 expression and activation, OV-MZ-6 cells; format: cell-based; conditions: 1 μM, 5, 30 or 60 min
Procedure: (§4) Since agonistic ligand performance requires integrin activation and signaling, by Western blot analysis, we studied whether the different ligands alter the expression levels and activation states of FAK and p44/42^(erk-1/2). For this, the respective target integrin-expressing tumor cell types were incubated with the corresponding subtype-selective ligand at a concentration of 1 μM for 24 h (Figure 8). […] Signal intensities of FAK and p44/42^(erk-1/2) expression and activation (p-FAK and p-p44/42^(erk-1/2)) on Western blots were evaluated by densitometry. Data are depicted as GAPDH-normalized fluorescence signal intensities as n-fold, by setting values obtained for the respective untreated cells to “1”. […] MAPK p44/42^(erk-1/2) expression was approximately 2.2-fold augmented, p44/42^(erk-1/2) by approximately 2.5-fold. It also raised activation of p-FAK and p-p44/42^(erk-1/2) by approximately 2.2-fold and 3.1-fold, respectively, in α5β1+ OV-MZ-6 cells. […] Additionally, it raised FAK (approximately 1.7-fold) and p-p44/42^(erk-1/2) (approximately 2.4-fold) in α5β1+ OV-MZ-6 cells.
(§5) Figure 8 Effects of ligands on cellular expression and activation of integrin-related signaling molecules FAK and p44/42^(erk-1/2). […] Signal intensities for FAK and p-FAK, respectively, were evaluated by use of the Bio-Rad Imager Gel Doc XR+ and a ChemiDoc XRS+ Systems and the software Image Lab. Shown are typical representative Western blot images and the corresponding histograms depicting GAPDH-normalized signal intensities as n-fold by setting the values obtained for untreated cells to “1” (drawn as black line). For each cell line, cutouts of identical gels are depicted.
(§6) In order to capture early and transient changes in signaling activation following ligand treatment, we next reduced the observation periods to 5, 30, or 60 min and assessed FAK expression and activation. […] Depicted are typical Western blot images and the corresponding densitometrical evaluations of GAPDH-normalized signal intensities as n-fold, by setting that of the respective untreated cell type to “1” (Figure 9). […]
(§7) The kinases (p-)p44/42^(erk-1/2) and (p-)FAK were detected as previously published.[15],[8] Briefly, cells were grown for 18 h on six-well plates in DMEM (0.45 Mio cells/well). After medium exchange, fresh medium with L1–L5 (concentration: 1.0 μM, 2 mL/well) was added, and cells were incubated for another 24 h at 37 °C. In a second series, cells were incubated with L1–L5 (1 μM or 1 nM) for 5, 30, or 60 min. Thereafter, the cellular proteins were extracted and processed by Western blotting. Proteins were visualized using the Pierce ECL chemiluminescent substrate (Thermo Fisher Scientific). Band signal intensities for (p-)p44/42^(erk-1/2) and (p-)FAK were evaluated using the Bio-Rad Imager Gel Doc XR + and ChemiDoc XRS + Systems and the software Image Lab. Differences in protein loading and blotting efficiency were normalized by reprobing the membranes with a monoclonal antibody directed to GAPDH. Signal intensities for protein bands of interest were normalized to those recorded for GAPDH. Typical Western blot images are depicted together with histograms summarizing the mean values of normalized fluorescence signal intensities as n-fold, by setting those obtained for untreated cells to “1”.

[2] = tested on: FAK, p-FAK, p44/42erk-1/2, p-p44/42erk-1/2 in αvβ3+ M21 cells; test: Western blot of FAK and p44/42erk-1/2 expression and activation, M21 cells; format: cell-based
Procedure: as §4, §5, §6, §7

tumor angiogenesis = conditions: low dose; cited from earlier work
glioblastoma = conditions: phase II and III trials; cited from earlier work
α5β1+ OV-MZ-6 cells = test: Wound scratch cell migration assay, OV-MZ-6 cells; format: cell-based; conditions: OV-MZ-6 cells
Procedure: as §1, §2, §3
Scheme S5. Effect of integrin ligands on cancer cell migration (control cells to Fig. 10A in the main manuscript). a) Integrin αvβ3- OV-MZ-6 cells, α5β1- M21 cells, α5β1+ and αvβ3- and […]
mages of wound gaps were taken directly after setting the wound scratch and then after […], respectively. Wound scratch assays were repeated at least 3 times. The extent of wound gap closure [%]/cell coverage was calculated by a python script utilizing Canny’s Edge Detection algorithm11 as described in the Experimental Section and summarized in the corresponding histograms.
(1 picture or pasted object on this page, not shown here)

M21 cells = test: Cell adhesion in the presence of ligand, M21 cells; format: cell-based; conditions: 1 μM
Procedure: as §2

human α5β1-integrin = target: T1, human α5β1-integrin (Homo sapiens, UniProt P05556+P08648); conditions: previously published values; cited from earlier work
T1 construct: purchased R&D 3230-A5-050
T1 sequence (P08648 42-995 limits assumed): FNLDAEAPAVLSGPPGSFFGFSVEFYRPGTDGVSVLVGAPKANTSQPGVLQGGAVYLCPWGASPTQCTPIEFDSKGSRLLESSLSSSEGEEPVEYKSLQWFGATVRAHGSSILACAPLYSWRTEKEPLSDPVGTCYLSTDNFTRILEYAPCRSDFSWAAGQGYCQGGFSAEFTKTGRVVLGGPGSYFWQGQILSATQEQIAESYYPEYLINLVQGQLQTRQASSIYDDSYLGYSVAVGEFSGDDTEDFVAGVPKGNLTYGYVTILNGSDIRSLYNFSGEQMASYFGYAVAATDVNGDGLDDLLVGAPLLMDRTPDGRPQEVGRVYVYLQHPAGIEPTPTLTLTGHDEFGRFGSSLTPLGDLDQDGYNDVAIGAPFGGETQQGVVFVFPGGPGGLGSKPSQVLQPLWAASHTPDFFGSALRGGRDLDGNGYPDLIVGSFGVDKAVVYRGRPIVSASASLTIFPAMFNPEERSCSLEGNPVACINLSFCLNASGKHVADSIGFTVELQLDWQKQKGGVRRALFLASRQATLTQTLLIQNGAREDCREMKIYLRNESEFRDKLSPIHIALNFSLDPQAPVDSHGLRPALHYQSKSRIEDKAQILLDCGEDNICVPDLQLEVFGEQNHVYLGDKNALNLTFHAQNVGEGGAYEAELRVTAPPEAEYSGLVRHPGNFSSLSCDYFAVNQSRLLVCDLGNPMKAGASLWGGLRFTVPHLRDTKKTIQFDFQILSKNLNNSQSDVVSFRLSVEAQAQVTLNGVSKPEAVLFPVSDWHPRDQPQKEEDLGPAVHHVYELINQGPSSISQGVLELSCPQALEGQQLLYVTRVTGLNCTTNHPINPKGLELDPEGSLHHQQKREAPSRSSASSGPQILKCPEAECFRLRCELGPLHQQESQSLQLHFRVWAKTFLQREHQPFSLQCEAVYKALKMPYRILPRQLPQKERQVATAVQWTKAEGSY
T1 sequence (P05556 21-728 limits assumed): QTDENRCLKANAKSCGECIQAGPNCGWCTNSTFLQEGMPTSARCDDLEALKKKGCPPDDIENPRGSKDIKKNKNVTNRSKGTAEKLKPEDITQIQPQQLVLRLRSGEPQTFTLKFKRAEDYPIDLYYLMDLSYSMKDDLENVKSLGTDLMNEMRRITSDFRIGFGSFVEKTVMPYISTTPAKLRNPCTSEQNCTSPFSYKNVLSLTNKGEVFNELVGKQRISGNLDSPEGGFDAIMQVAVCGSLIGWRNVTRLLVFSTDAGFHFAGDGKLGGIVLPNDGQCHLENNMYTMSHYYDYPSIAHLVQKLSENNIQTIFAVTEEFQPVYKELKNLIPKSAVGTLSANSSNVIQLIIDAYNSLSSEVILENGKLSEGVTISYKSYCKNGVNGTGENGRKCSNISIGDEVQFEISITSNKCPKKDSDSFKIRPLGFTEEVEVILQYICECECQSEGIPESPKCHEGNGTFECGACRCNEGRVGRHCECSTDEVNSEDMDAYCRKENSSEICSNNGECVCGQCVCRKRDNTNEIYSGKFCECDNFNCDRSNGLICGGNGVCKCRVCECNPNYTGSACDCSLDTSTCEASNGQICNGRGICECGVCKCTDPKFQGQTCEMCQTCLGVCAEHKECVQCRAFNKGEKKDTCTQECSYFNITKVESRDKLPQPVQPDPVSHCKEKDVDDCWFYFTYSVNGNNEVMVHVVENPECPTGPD

human αvβ3-integrin = target: T2, human αvβ3-integrin (Homo sapiens, UniProt P05106+P06756); conditions: previously published values; cited from earlier work
T2 construct: purchased R&D 3050-AV-050
T2 sequence (P06756 31-992 limits assumed): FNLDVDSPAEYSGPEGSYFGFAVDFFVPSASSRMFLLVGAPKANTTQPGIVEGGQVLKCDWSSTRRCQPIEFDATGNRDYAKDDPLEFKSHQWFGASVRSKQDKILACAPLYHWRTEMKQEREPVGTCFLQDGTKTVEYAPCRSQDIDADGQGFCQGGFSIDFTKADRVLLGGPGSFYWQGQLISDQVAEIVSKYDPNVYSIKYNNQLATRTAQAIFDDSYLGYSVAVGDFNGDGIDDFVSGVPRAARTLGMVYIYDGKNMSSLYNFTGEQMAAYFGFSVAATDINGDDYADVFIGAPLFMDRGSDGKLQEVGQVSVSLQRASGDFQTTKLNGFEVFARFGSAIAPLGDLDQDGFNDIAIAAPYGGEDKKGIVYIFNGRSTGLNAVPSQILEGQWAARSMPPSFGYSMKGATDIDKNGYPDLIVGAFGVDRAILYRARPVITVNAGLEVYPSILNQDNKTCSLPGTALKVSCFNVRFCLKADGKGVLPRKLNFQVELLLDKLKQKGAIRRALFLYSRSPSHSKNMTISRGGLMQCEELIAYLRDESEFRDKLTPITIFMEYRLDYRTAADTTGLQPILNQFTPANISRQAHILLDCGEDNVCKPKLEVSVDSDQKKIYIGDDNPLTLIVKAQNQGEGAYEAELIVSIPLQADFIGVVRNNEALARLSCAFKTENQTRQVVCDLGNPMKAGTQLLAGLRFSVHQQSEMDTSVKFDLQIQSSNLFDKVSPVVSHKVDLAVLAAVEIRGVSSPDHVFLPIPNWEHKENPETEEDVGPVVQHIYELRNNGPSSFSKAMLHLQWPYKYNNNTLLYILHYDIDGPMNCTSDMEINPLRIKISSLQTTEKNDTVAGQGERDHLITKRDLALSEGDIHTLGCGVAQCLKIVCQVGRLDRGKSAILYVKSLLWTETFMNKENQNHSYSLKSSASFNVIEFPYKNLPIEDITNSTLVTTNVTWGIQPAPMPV
T2 sequence (P05106 27-718 limits assumed): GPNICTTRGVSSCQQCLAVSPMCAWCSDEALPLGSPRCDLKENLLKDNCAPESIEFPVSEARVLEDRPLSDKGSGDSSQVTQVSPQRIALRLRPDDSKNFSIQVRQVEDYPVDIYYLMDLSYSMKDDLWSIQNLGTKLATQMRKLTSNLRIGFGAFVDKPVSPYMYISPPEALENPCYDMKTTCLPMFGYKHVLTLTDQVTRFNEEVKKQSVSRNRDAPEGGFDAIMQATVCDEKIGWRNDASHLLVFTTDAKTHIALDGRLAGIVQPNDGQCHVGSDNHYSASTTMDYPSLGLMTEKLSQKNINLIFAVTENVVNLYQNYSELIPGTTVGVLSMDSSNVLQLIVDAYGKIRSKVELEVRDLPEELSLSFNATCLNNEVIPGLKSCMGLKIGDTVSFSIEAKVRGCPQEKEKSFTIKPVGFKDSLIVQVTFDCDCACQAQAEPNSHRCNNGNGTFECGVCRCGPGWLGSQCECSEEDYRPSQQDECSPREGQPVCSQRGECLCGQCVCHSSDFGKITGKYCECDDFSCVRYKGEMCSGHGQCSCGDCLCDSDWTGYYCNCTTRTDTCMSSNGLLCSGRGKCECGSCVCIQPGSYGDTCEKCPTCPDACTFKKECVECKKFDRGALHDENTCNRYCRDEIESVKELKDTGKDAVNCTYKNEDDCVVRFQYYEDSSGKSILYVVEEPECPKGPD

human αvβ6-integrin = target: T3, human αvβ6-integrin (Homo sapiens, UniProt P06756+P18564); conditions: previously published values; cited from earlier work
T3 construct: purchased R&D 3817-AV-050
T3 sequence (P06756 31-992 limits assumed): as the sequence (P06756 31-992 limits assumed) above
T3 sequence (P18564 22-707 limits assumed): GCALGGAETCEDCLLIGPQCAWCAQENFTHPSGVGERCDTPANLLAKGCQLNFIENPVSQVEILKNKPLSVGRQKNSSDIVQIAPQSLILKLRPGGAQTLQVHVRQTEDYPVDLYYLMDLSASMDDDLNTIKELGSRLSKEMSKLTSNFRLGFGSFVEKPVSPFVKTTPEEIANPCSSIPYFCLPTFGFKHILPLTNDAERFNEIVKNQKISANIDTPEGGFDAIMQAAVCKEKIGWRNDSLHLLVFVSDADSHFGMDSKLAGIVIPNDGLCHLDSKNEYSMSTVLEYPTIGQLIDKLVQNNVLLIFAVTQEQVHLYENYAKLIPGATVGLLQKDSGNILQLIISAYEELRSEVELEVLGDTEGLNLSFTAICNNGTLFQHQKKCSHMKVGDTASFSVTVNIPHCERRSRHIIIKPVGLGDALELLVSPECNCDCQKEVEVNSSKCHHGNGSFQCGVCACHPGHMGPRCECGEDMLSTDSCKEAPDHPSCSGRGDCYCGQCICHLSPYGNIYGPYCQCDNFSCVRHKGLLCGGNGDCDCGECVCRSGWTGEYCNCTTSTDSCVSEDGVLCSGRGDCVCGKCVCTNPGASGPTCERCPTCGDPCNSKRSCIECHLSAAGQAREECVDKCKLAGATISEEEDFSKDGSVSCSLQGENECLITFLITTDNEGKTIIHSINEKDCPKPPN

c(RGDf(NMe)V) (cyclo(RGD[dF][NMeV])) [cilengitide (L2), reference compound]
Effect on wound gap closure / cell migration (αvβ3+ M21 cells; 1 nM): increased wound gap closure
Effect on wound gap closure / cell migration (αvβ3+ M21 cells; 1 μM): markedly delaying wound gap closure
Reduction of wound gap closure (αvβ3+ M21 cells; 1 μM, after 9 h): approximately threefold
Cell coverage (wound gap closure) (αvβ3+ M21 cells; 1 μM, within 72 h): approximately 40%
FAK expression versus untreated cells [1]: comparable to or slightly higher than in untreated
FAK expression versus untreated cells ([2]; 1 nM, 5, 30 or 60 min): comparable to or slightly higher than in untreated
FAK expression versus untreated cells ([2]; 1 μM, 5, 30 or 60 min): comparable to or slightly higher than in untreated
Decrease of p-FAK levels within 60 min ([2]; both concentrations (1 nM, 1 μM)): approximately threefold
p-FAK levels versus untreated cells ([2]; both concentrations (1 nM, 1 μM), up to 60 min): almost comparable to that in untreated M21 cells
Effect on tumor angiogenesis (tumor angiogenesis): rather promoted than inhibited tumor angiogenesis
Clinical efficacy (glioblastoma): poor clinical efficacy
Effect on wound gap closure / cell migration (α5β1+ OV-MZ-6 cells; 1 nM): not effective
Cell coverage (wound gap closure) (α5β1+ OV-MZ-6 cells; 1 μM, within 72 h): approximately 60%
Effect on cell adhesion / attachment (M21 cells): abrogating adhesion and spreading
Effect on cell adhesion / attachment (M21 cells; listed as CIL/L2): performed as inhibitors of cell attachment

RTDLDSLRT [linear peptide, internal standard for αvβ6, reference compound]
IC50 (human α5β1-integrin): > 1000 nM
IC50 (human αvβ3-integrin): > 1000 nM
IC50 (human αvβ6-integrin): 29.5 ± 4.5 nM
